Measured values reported in US5066592A, “Trigramin - a platelet aggregation inhibiting polypeptide” (Temple University of the Commonwealth System of Higher …, priority 1990, dated 1991).

Tests used:
[1] = tested on: bleeding time from hamster mesentery lesion; test: Hamster mesentery bleeding time during intravenous infusion; type: in vivo, golden Syrian hamsters
Procedure: Female golden Syrian hamsters (90-150 g) were maintained on food and water ad libitum, but fasted overnight prior to their use in the present experiment. After the administration of anesthesia (65 mg/kg sodium pentobarbital, i.p.), the animals were shaved in preparation for surgery. The trachea was intubated with PE-100 polyethylene tubing to facilitate spontaneous breathing. Cannulation of the right femoral vein was performed to provide an intravenous route for supplemental anesthesia as well as for the administration of various control and experiment agents. A catheter was introduced into the right carotid artery for the continuous monitoring of arterial blood pressure, and a rectal temperature probe was inserted. The animal's body temperature was maintained at 37° C. with a heating pad and lamp.
The shaved abdomen was opened by a mid-line incision and a portion of the small intestine was exteriorized and draped over a lucite pedestal. Exposed tissue was kept warm and moist by continuous superfusion with warmed (37° C.) Mammalian Ringer's Solution. Experimental solutions were infused into the right femoral vein at a rate of 0.199 ml/min with a Harvard pump for a 10 minute period. An arterial vessel (external diameter, 100-200 micrometers) located at the junction of the small intestinal wall and the mesentery was severed 4 minutes after the start of the infusion. Blood was flushed away by the superfusion system and the waste was removed with a vacuum from a well surrounding the viewing pedestal. Bleeding was observed through Zeiss dissecting microscope (20×) and bleeding time was recorded from the time of the cut until the cessation of bleeding by the formation of a hemostatic plug. Each animal was used as its own control with bleeding time determined both during the infusion of saline and the selected experimental agent. […] Four additional animals were infused with trigramin while arterial blood pressure was continuously monitored to determine if it had any direct effect on systemic blood pressure. […]

[2] = target: T1, fibrinogen receptors on platelets associated with the GPIIb-GPIIIa complex (Homo sapiens, UniProt P05106+P08514); test: 125I-fibrinogen binding to ADP-stimulated human washed platelets; details: ADP 10 micromolar-stimulated platelets; double-reciprocal plot FIG. 1; read-out: inhibition constant, Ki (competitive inhibition of fibrinogen binding)
T1 construct: Human washed platelet suspension was prepared; endogenous in cells; host or cells: washed human platelets, stimulated with 10 micromolar ADP
Procedure: (§1) The following experiment illustrates that trigramin can inhibit fibrinogen binding to platelets. Human washed platelet suspension was prepared according to the method of Mustard et al., Brit. J. Haemat. 22:193-204 (1972) and suspended in Tyrode's albumin solution (pH 7.35) containing 3.5 mg/ml bovine serum albumin (Sigma, Fraction V). To 420 microliters of this platelet suspension (about 5×10^8 platelets/ml) was added 10 microliters of ^125 I-fibrinogen. An amount of trigramin was added to the suspension, followed 3 minutes later by 10 microliters ADP (final concentration 10 micromolar). Following addition of ADP, the platelet suspension was gently shaken and incubated for about another 10 minutes. Then, 400 microliters of the platelet suspension were centrifuged through silicone oil at 15,000 g in an Eppendorf centrifuge. The amount of ^125 I-fibrinogen bound to the platelet pellet was measured. Nonspecific binding of fibrinogen was measured in the presence of 6 mM EDTA. The IC50 or 50% inhibition of fibrinogen binding was determined.

[3] = tested on: exposed fibrinogen receptors on alpha-chymotrypsin-treated platelets; test: 125I-fibrinogen binding to alpha-chymotrypsin-treated platelets; design: species or system human; details: data not shown; read-out: IC50 of inhibition of 125I-fibrinogen binding to alpha-chymotrypsin-treated platelets
Procedure: as §1
(§2) Platelet suspension was prepared as above. Platelets treated with alpha chymotrypsin (Sigma, grade IS) were prepared as described by Kornecki et al., J. Biol. Chem. 258:9349-9356 (1983), except that the incubation time of the platelets with chymotrypsin was reduced from 45 minutes to 20 minutes.

[4] = tested on: ADP-stimulated platelets; test: Fibrinogen-induced aggregation of ADP-stimulated platelets in suspension (turbidimetric); type: cell-based, human; details: ADP 10 micromolar, fibrinogen 200 micrograms/ml, 37° C.; read-out: IC50 for inhibition of aggregation of ADP-stimulated platelets
Procedure: as §2
(§3) Various doses of trigramin (0.25-5.0 microgram/ml) were added to 420 microliters of platelet suspension (3×10^8 platelets per ml). One minute later, 10 microliters ADP (10 micromolar) and 10 microliters fibrinogen (200 micrograms) were added to initiate platelet aggregation. The same procedure using fibrinogen alone (without ADP) was carried out to induce aggregation of the chymotrypsin-treated platelets. The extent of platelet aggregation in each system was measured at 37° C. by the turbidimetric method of Born et al., J. Physiol. (Lond.) 168:178-195 (1963).

[5] = tested on: chymotrypsin-treated platelets; test: Fibrinogen-induced aggregation of chymotrypsin-treated platelets (turbidimetric); type: cell-based, human; details: fibrinogen alone, without ADP, 37° C.; read-out: IC50 for inhibition of chymotrypsin-treated platelets (aggregation)
Procedure: as §2, §3

[6] = tested on: platelets; test: Platelet aggregation induced by prostaglandin endoperoxide analogue or thrombin; type: cell-based, human; details: isolated platelet suspension
[7] = target: T2, GPIIb-GPIIIa complex (Homo sapiens, UniProt P05106+P08514); test: 125I-trigramin binding to human platelets
T2 construct: endogenous in cells; host or cells: human platelets (resting, ADP-stimulated or chymotrypsin-treated)
From the text: There are several similarities between the binding of ^125 I-trigramin and the binding of ^125 I-fibrinogen to human platelets. The binding of both ligands is inhibited by EDTA; by monoclonal antibodies interacting with the GP-IIb-GPIIIa complex (Coller, J. Clin. Invest. 76:101-108 (1985) and Bennett et al., Proc. Natl. Acad. Sci. U.S.A. 80:2417-2421 (1983)); by synthetic peptides representing putative platelet binding sites on the fibrinogen molecule Arg-Gly-Asp-Ser (Gartner et al., J. Biol. Chem. 260:11891-11894 (1985) and Plow et al., Proc. Natl. Acad. Sci. U.S.A. 82:8057-8061 (1985)); and by tyrosyl pentadecapeptide of the C-terminal portion of the gamma chain, […](Kloczewiak et al., Biochemistry 23:1767-1774 (1984). […] These individuals are deficient in the GPIIb-GPIIIa complex.
The binding affinity of trigramin to ADP-stimulated platelets resembles that of monoclonal antibodies.

[8] = target: T3, GPIIb-GPIIIa complex on thrombin-stimulated platelets (Homo sapiens, UniProt P05106+P08514); test: 125I-von Willebrand Factor binding to thrombin-stimulated human platelets; details: trigramin 10^-8 M; thrombin 0.5 u/ml; von Willebrand Factor 5 micrograms/ml
T3 construct: endogenous in cells; host or cells: human platelets stimulated with thrombin (0.5 u/ml)
Procedure: (§4) The final concentration of von Willebrand Factor was 5 micrograms/ml. The total specific von Willebrand Factor binding was 380+/-55 ng/10^8 platelets in the control sample. […] It is well known that von Willebrand Factor binds to GPIIb-GPIIIa complex on thrombin-stimulated platelets, and to GPIb on ristocetin-stimulated platelets.

[9] = target: T4, GPIb on ristocetin-stimulated platelets (Homo sapiens, UniProt P07359); test: 125I-von Willebrand Factor binding to ristocetin-stimulated platelets; details: ristocetin 0.75 mg/ml
T4 construct: endogenous in cells; host or cells: platelets stimulated with ristocetin (0.75 mg/ml)
Procedure: as §4

[10] = tested on: melanoma cells that contain GPIIIa and vitronectin receptor; test: Melanoma cell adhesion to fibronectin-covered substrata and cell spreading; type: cell-based
From the text: We have also observed an interaction between trigramin and melanoma cells that contain GPIIIa and vitronectin receptor. […] In the system tested, the biological activity of 0.2 nmoles of trigramin corresponded to 100 nmoles of the peptide glycine-arginine-glycine-aspartic acid-serine ("GRGDS"). This observation is interesting in view of the successful efforts of Humphries et al., Science 233: 467-470 to inhibit metastases of a melanoma cell line in mice by GRGDS.

[11] = Elimination from the circulation; details: in vivo
[12] = Solubility in water; type: physicochemical
[13] = Stability to proteolysis; type: in vitro ADME
[14] = Phospholipase A activity of the HPLC-purified material; type: biochemical
Procedure: A high performance liquid chromatography column (250×4.6 mm) containing a wide-pore C-18 silica matrix (e.g., VYDAC TPRP, The Separations Group, Hesperia, Calif.) is equilibrated at 20° C. in 0.1% trifluoroacetic acid. 150 micrograms of the above-prepared crude material in 200 microliters of 0.15M NaCl is injected into the column at a flow rate of 1.0 ml/min. The column is washed for 3 minutes. Fractions are eluted over 50 minutes with a gradient of 0-55% acetonitrile. […] The homogeneity of the purified material is confirmed by SDS-polyacrylamide gel electrophoresis with a silver stain (1 microgram). Trigramin appears as a single band with apparent molecular weight of about 9 kd on 20% gels.

Compound: CC#CCC(C)[C@H](O)/C=C/[C@@H]1[C@H]2C/C(=C/CCCC(=O)O)C[C@H]2C[C@H]1O (stereo partly drawn) [Iloplrost, reference compound]
- time until bleeding ceased after the completion of the infusion ([1]; one hamster, positive control, 2 ng/kg/min): approximately 9 minutes

Compound: trigramin
- Ki [2]: 20 nM
- IC50 [3]: 11 nM
- IC50 [4]: 130 nM
- IC50 [5]: 28 nM
- inhibition of platelet aggregation induced by 9,11-dideoxy-9,11-methanoepoxy-PGF2-alpha ([6]; agonist 2.5 micromolar): inhibited platelet aggregation
- inhibition of platelet aggregation induced by thrombin ([6]; thrombin 0.5 units/ml): inhibited platelet aggregation
- binding affinity of 125I-trigramin relative to 125I-fibrinogen, judged on dissociation constants ([7]; ADP-stimulated platelets): approximately 15 fold
- binding to platelets of patients with Glanzmann's thrombasthenia ([7]; platelets deficient in the GPIIb-GPIIIa complex): Neither trigramin nor fibrinogen was observed to bind sufficiently
- number of trigramin binding sites relative to total number of fibrinogen binding sites exposed by ADP ([7]; similar on resting, ADP-stimulated and chymotrypsin-treated platelets): 50%
- blocking of von Willebrand Factor binding to thrombin-stimulated human platelets [8]: specifically blocks
- blocking of von Willebrand Factor binding to ristocetin-stimulated platelets [9]: does not block
- adhesion of melanoma cells to fibronectin-covered substrata [10]: blocks the adhesion
- melanoma cell spreading [10]: inhibits cell spreading
- amount giving corresponding biological activity in the melanoma cell system ([10]; 0.2 nmoles of trigramin corresponded to 100 nmoles of GRGDS): 0.2 nmoles
- bleeding time after cessation of infusion ([1]; hamster, infusion 80 micrograms/kg/min, FIG. 4): rapid return of bleeding time to normal values
- bleeding time of the hamster mesentery during continuous infusion ([1]; i.v. infusion, dose-dependent, control bleeding time 3.02 minutes+/-0.43, FIG. 3): markedly increased
- elimination from the circulation [11]: eliminated from the circulation rapidly
- solubility in water [12]: soluble in water
- stability to proteolysis [13]: relatively stable to proteolysis
- phospholipase A activity [14]: devoid of phospholipase A activity
